In patent US20020049151A1, “Therapeutic approaches to diseases by suppression of the NURR subfamily of nuclear transcription factors” (priority 2000, published 2002):

Key:
CRH mRNA = assay: RT-PCR of CRH mRNA in primary human synoviocytes; assay type: cell-based; details: primary RA and PsA synoviocytes, 6 h; 10 ng/ml IL-1β, IL-6, TNF, 1 μM PGE2, MoCM; mean +/−SE
Excerpt: To identify the origin of the cells that express CRH, the expression of CRH mRNA in isolated primary human synoviocyte cells was investigated. Synoviocytes are an important source and target cell for IL-1β, TNFα and PGE2 action within inflamed synovial tissue (Bucala et al., 1991). Moreover, these pro-inflammatory agents are important mediators in the pathogenesis of human synovial hyperplasia and cartilage destruction (MacNaul et aL., 1990). […] Representative examples of PCR products generated using synoviocytes maintained under normal conditions (Con), or exposed to 10 ng/ml IL-1β, IL-6, TNF, 1 μM PGE2, MoCM or 25 μM forskolin (FOR) for 6 h. Results were obtained from three separate experiments, using both RA and PsA cell lines. Values shown are the mean +/−SE. The symbol * indicates P<0.01 compared to control. PCR products generated were confirmed by Southern blot analysis using CDNA probes for human CRH and GAPDH.
The regulation of hypothalamic CRH gene expression by activation of adenylate cyclase/protein kinase A signaling pathway has previously been established (Guardiola-diaz et al., 1994). The ability of forskolin (FOR), an adenylate cyclase activating agent, was tested for stimulatory effects on CRH gene expression in primary synoviocytes. […] To determine regulatory signals of peripheral CRH expression the ability of pro-inflammatory agonists to regulate endogenous CRH MRNA was examined. […] Next, a comparison of the ability of individual pro-inflammatory mediators to induce CRH mRNA was performed. […] Levels of GAPDH mRNA remained relatively constant under all conditions tested (FIG. 1D).
Synovial tissue was treated for 4 h with 1 mg/ml collagenase (type I; Worthington Biochemical, Freehold, N.J.) in RPMI at 37° C. in 5% CO2. Dissociated cells were plated in RPMI supplemented with 10% fetal calf serum (GibcoBRL, Paisley, UK), penicillin (100 U/ml), streptomycin (100 U/ml) and fungizone (0.25 μg/ml). […] Twenty-four hours before transfection, 1×10^6 synoviocyte cells were plated in 25 cm^2 dishes and allowed to attach. […] Chloramphenicol acetyl transferase (CAT) levels were measured using a CAT ELISA (Boehringer Mannheim, Germany). Protein concentrations were determined by the Bradford assay (BioRad, Richmond, Calif.). […]

CRH NBRE = assay: EMSA of synoviocyte nuclear extracts with CRH NBRE; assay type: cell-based, human; details: synoviocytes stimulated 1 h; 25 μM forskolin, 10 ng/ml TNFα, IL-1β or PGE2
Experimental: To analyze the effects of cytokines on the ability of NURR1 to bind DNA, EMSA was performed to examine the binding properties of NURR1 to the consensus sequence (NBRE) in the human CRH promoter. […] Binding of the larger protein complex, and to a lesser extent the smaller complex, was inhibited by 50× molar excess of unlabeled homologous oligonucleotide.
Nuclear extracts from untreated, 25 μM forskolin (FOR) or lOng/ml TNFα treated synoviocytes (1 h) were compared for increased binding to the α^32 P-labeled CRH NBRE. DNA-protein interactions were assayed in the presence of 50× molar excess of homologous oligonucleotide or NURR1 specific antiserum (NURR1 Ab).
Nuclear protein extracts were prepared as previously described (Murphy and Conneely, 1997). For the EMSAs, 1 μg of nuclear extract was incubated for 20 mins in the presence of 20 mM Hepes (pH 7.9), 5 mM MgCl2, 20% glycerol, 100 mM KCL, 0.2 mM EDTA, 8% Ficoll, […], 500 ng/μl poly (deoxyinosinicdeoxycytidylic) acid, 50 mM dithiothreitol (DTT) and [α-^32P]-dCTP labeled doublestranded oligonucleotide. For supershifts experiments, antibodies to NURR1 (Santa Cruz Biotechnology, Santa Cruz, Calif.) were added following the initial 20-minute incubation, then incubated for an additional 20 minutes. The samples were electrophoresed through a 5.5% non-denaturing polyacrylamide gel in 0.5× TrisBorate-EDTA (TBE) buffer. For competition studies, the reaction was performed as described with the indicated concentrations of unlabeled probe. The oligonucleotide CRH NBRE 5′-[…]-3′ (SEQ ID NO:152) was used in the mobility shift assay.

For `CCCCC[C@H](O)/C=C/[C@H]1[C@H](O)CC(=O)[C@@H]1C/C=C\CCCC(=O)O` [PGE2, reference compound], the “CRH mRNA expression, fold stimulation” value (CRH mRNA) was 3.85+/−1.5 fold and the “binding of nuclear protein complexes with the CRH NBRE” value (“binding of nuclear protein complexes” for short) (CRH NBRE) was “significant increased binding”.
With TNFα the “CRH mRNA expression, fold stimulation” value (CRH mRNA) was 3.6+/−2.0 fold and the “binding of nuclear protein complexes” value (CRH NBRE) was “significant increased binding”.
For IL-6: pro-inflammatory cytokine, the “CRH mRNA expression, fold stimulation” value (CRH mRNA) was 1.5+/−1.2 fold.
IL-1β: pro-inflammatory cytokine was tested, and the “CRH mRNA expression, fold stimulation” value (CRH mRNA) was 2.3+/−1.0 fold and the “binding of nuclear protein complexes” value (CRH NBRE) was “significant increased binding”.
